Target: T1, recombinant human GR (Homo sapiens, UniProt P04150)
T1 construct: purchased Panvera/Invitrogen P2812 (kit P2893)
T1 sequence (P04150 1-777): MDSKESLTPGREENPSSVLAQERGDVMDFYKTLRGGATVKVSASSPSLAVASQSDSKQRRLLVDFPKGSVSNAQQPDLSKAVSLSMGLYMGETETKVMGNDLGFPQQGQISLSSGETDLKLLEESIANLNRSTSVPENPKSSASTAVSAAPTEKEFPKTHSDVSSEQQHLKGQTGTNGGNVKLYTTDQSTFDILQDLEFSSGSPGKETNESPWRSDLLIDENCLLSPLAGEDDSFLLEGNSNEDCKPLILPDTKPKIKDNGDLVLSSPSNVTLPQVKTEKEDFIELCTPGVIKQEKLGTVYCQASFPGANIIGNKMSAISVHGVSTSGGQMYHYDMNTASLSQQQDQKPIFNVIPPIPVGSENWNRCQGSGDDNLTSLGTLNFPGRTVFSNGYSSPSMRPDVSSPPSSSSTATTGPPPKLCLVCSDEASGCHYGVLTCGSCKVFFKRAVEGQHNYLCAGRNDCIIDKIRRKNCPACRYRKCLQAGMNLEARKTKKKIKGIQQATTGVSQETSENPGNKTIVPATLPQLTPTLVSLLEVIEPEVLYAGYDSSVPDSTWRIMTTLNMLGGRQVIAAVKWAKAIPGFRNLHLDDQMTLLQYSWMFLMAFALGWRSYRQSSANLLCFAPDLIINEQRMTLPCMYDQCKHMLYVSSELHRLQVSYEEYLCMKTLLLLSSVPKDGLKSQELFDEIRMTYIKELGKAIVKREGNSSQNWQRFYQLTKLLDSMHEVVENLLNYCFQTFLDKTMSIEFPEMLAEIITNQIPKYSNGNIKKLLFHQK
Assay: Human Glucocorticoid Receptor (GR) fluorescence polarization assay
Format: binding
Settings: GS Red tracer, 2 hours at room temperature
Protocol: Human Glucocorticoid Receptor (GR) Assay
The assay is based on a commercial kit from Panvera/Invitrogen (Part number P2893). The assay technology is fluorescence polarization. The kit utilises recombinant human GR (Panvera, Part number P2812), a Fluoromone™ labelled tracer (GS Red, Panvera, Part number P2894) and a Stabilizing Peptide 10× (Panvera, Part number P2815). The GR and Stabilizing Peptide reagents are stored at −70° C. while the GS Red is stored at −20° C. Also included in the kit are 1M DTT (Panvera, Part number P2325, stored at −20° C.) and GR Screening buffer 10× (Panvera, Part number P2814, stored at −70° C. initially but once thawed stored at room temperature). Avoid repeated freeze/thaws for all reagents. The GR Screening buffer 10× comprises 100 mM potassium phosphate, 200 mM sodium molybdate, 1 mM EDTA and 20% DMSO.
Test compounds (1 μL) and controls (1 μL) in 100% DMSO were added to black polystyrene 384-well plates (Greiner low volume black flat-bottom, part number 784076). 0% control was 100% DMSO and 100% control was 10 μM Dexamethasone. […] The plate was read in an Analyst plate reader (LJL Biosystems/Molecular Devices Corporation) or other similar plate reader capable of recording fluorescence polarization (excitation wavelength 530 nm, emission wavelength […] and a dichroic mirror at 561 nm). The IC50 values were calculated using XLfit model 205.

IC50: 240 nM
Structure (SMILES): CC1=CC(C)(C)N(Cc2ccc(Cl)cc2)c2ccccc21 [CAS120109-44-6]
